Assay results: paper PMC10011554, “BET inhibitor trotabresib in heavily pretreated patients with solid tumors and diffuse large B-cell lymphomas” (Nature Communications, 2023)

Experiment: Adverse events, DLTs, MTD and RP2D in phase I study CC-90010-ST-001 (NCI CTCAE v4.03)
Format: in vivo
Conditions: for TRAE: ALT increased / TRAE: Anemia / TRAE: Any TRAE / TRAE: Asthenia / TRAE: Decreased appetite / TRAE: Dehydration / TRAE: Dermatitis acneiform / TRAE: Diarrhoea / TRAE: Dysgeusia / TRAE: Fatigue / TRAE: Hyperglycemia / TRAE: Hypertension / TRAE: Hyponatremia / TRAE: Hypophosphatemia / TRAE: Nausea / TRAE: Neutropenia / TRAE: Platelet count decreased / TRAE: Stomatitis / TRAE: Thrombocytopenia / TRAE: Vomiting: part A 45 mg/day
Method: The primary endpoints of the study were the safety and tolerability of trotabresib, as well as the MTD and/or RP2D of trotabresib. Safety was assessed using the National Cancer Institute Common Terminology Criteria for Adverse Events v4.03[53].
The decision to evaluate additional subjects within a dose cohort, a higher dose cohort, intermediate dose cohorts, smaller dose increments, alternate dosing schedules, or declare an MTD will also be determined by the SRC, based on their review of clinical and laboratory safety […]
7.2.4. Definition of a Subject Evaluable for DLT
After the first dose is administered in any cohort during dose escalation, subjects in each cohort […]
more than one subject per day will be enrolled in a given dose escalation cohort.
A subject evaluable for DLT is defined as one that: […]
without experiencing a DLT,
Subjects non-evaluable for DLT will be replaced. Additional subjects within any dose cohort may be enrolled at the discretion of the SRC. Intra-subject dose escalation will not be allowed during the DLT assessment period.
7.2.5. Definition of Maximum Tolerated Dose (MTD) […]
of MTD is described in Section 7.2.2.
A variable dose cohort (eg, less frequent dosing) may be evaluated to accurately determine the MTD at the discretion of the SRC.
7.2.6. Definition of Dose-Limiting Toxicity (DLT) […]
used as a guide for the grading of severity of adverse events. A DLT is defined as any of the following toxicities occurring within the DLT assessment unless the event can clearly be […]
Do se-limiting toxicities are described below:
• Hyperglycemia meeting any of the following criteria:
− Grade 3 or greater fasting hyperglycemia (> 250 mg/dL) lasting > 4 days despite optimal medical treatment
(1 picture or pasted object on this page, not shown here)
− Hyperglycemia associated with diabetic ketoacidosis or nonketotic hyperosmolar coma regardless of glucose level
− Hyperglycemia that necessitates dose reduction despite dose interruption and resolution to ≤ grade 1 hyperglycemia within two weeks as described in […]
• Any Grade 4 non-hematologic toxicity of any duration
• Any non-hematologic toxicity Grade ≥ 3 EXCEPT for:
− Grade 3 diarrhea, nausea, or vomiting of ≤ 3 days duration (with optimal medical […]
− Grade 3 rash of the acneiform, pustular or maculopapular type which resolves to […]
level with resumption of study drug at the same dose (with optimal medical […]
− Grade 3 fatigue which resolves to Grade ≤ 2 within 7 days of study drug […]
the same dose (with optimal medical management).
• Hematological toxicities as follows:
− Grade 4 neutropenia lasting > 7 days
− Grade 4 thrombocytopenia lasting > 7 days, Grade ≥ 3 thrombocytopenia with clinically significant bleeding
• Any AE, Grade ≥ 2 not specified or exempt above, unless clearly determined to be unrelated to the drug, necessitating dose-level reduction during Cycle 1.
Isolated laboratory changes without associated clinical signs or symptoms (eg, hypomagnesemia, hypermagnesemia, hypoalbuminemia, hypophosphatemia, lymphocyte count increased or decreased) may not be included in this definition. These findings will be discussed and reviewed […]
7.2.7. Criteria for Dose Escalation in the Next Cohort of Subjects
During Part A, the dose escalation criteria are described in Section 7.2.2.
7.2.8. Definition of Stopping Criteria
During Part A, the dose escalation stopping rules are in Section 7.2.2.
7.2.9. Permitted Study Drug Adjustments
Dose reductions are permitted in any cycle, including Cycle 1.
• Dose reductions that occur in Cycle 1 during dose escalation will constitute DLT as […]

[1] = part A (N = 69), 02 Dec 2019 cutoff

SMILES: Cn1cc(-c2cc(S(C)(=O)=O)ccc2OCC2CC2)c2ccccc2c1=O [trotabresib]
- MTD (Schedule A, 3-days-on/11-days-off (180 mg per 28-day cycle)): 30 mg/dose
- MTD (Schedule B, 4-days-on/24-days-off (180 mg per 28-day cycle)): 45 mg/dose
- MTD (Schedule C, 2-days-on/5-days-off (120 mg per 28-day cycle)): 15 mg/dose
- dose intensity below which well tolerated (human, in vivo): below 200 mg per 28-day cycle
- further grade 3 and 4 TRAEs reported in one patient each (overall part A population): Grade 3 essential hypertension, hypokalemia, lipase increased, liver function test abnormal, presyncope, skin hemorrhage, and grade 4 blood creatinine phosphokinase increased, diabetes mellitus, and inappropriate antidiuretic hormone secretion
- TRAE: ALT increased (any grade): 0%
- TRAE: Anemia (any grade): 28.57%
- TRAE: Any TRAE (any grade): 85.71%
- TRAE: Asthenia (any grade): 14.29%
- TRAE: Decreased appetite (any grade): 0%
- TRAE: Dehydration (any grade): 0%
- TRAE: Dermatitis acneiform (any grade): 0%
- TRAE: Diarrhoea (any grade): 42.86%
- TRAE: Dysgeusia (any grade): 14.29%
- TRAE: Fatigue (any grade): 0%
- TRAE: Hyperglycemia (any grade): 0%
- TRAE: Hypertension (any grade): 0%
- TRAE: Hyponatremia (any grade): 0%
- TRAE: Hypophosphatemia (any grade): 0%
- TRAE: Nausea (any grade): 28.57%
- TRAE: Neutropenia (any grade): 0%
- TRAE: Platelet count decreased (any grade): 0%
- TRAE: Stomatitis (any grade): 42.86%
- TRAE: Thrombocytopenia (any grade): 71.43%
- TRAE: Vomiting (any grade): 14.29%
- TRAE: ALT increased (grade 3): 0%
- TRAE: Anemia (grade 3): 14.29%
- TRAE: Any TRAE (grade 3): 14.29%
- TRAE: Asthenia (grade 3): 0%
- TRAE: Decreased appetite (grade 3): 0%
- TRAE: Dehydration (grade 3): 0%
- TRAE: Dermatitis acneiform (grade 3): 0%
- TRAE: Diarrhoea (grade 3): 0%
- TRAE: Dysgeusia (grade 3): 0%
- TRAE: Fatigue (grade 3): 0%
- TRAE: Hyperglycemia (grade 3): 0%
- TRAE: Hypertension (grade 3): 0%
- TRAE: Hyponatremia (grade 3): 0%
- TRAE: Hypophosphatemia (grade 3): 0%
- TRAE: Nausea (grade 3): 0%
- TRAE: Neutropenia (grade 3): 0%
- TRAE: Platelet count decreased (grade 3): 0%
- TRAE: Stomatitis (grade 3): 0%
- TRAE: Thrombocytopenia (grade 3): 0%
- TRAE: Vomiting (grade 3): 0%
- TRAE: ALT increased (grade 4): 0%
- TRAE: Anemia (grade 4): 0%
- TRAE: Any TRAE (grade 4): 14.29%
- TRAE: Asthenia (grade 4): 0%
- TRAE: Decreased appetite (grade 4): 0%
- TRAE: Dehydration (grade 4): 0%
- TRAE: Dermatitis acneiform (grade 4): 0%
- TRAE: Diarrhoea (grade 4): 0%
- TRAE: Dysgeusia (grade 4): 0%
- TRAE: Fatigue (grade 4): 0%
- TRAE: Hyperglycemia (grade 4): 0%
- TRAE: Hypertension (grade 4): 0%
- TRAE: Hyponatremia (grade 4): 0%
- TRAE: Hypophosphatemia (grade 4): 0%
- TRAE: Nausea (grade 4): 0%
- TRAE: Neutropenia (grade 4): 0%
- TRAE: Platelet count decreased (grade 4): 0%
- TRAE: Stomatitis (grade 4): 0%
- TRAE: Thrombocytopenia (grade 4): 14.29%
- TRAE: Vomiting (grade 4): 0%
- subjects with at least one DLT (part A (N = 69)): 6 subjects
- Grade 3 or 4 TEAE anemia [1]: 4.3%
- Grade 3 or 4 TEAE arthralgia [1]: 2.9%
- Grade 3 or 4 TEAE asthenia [1]: 5.8%
- Grade 3 or 4 TEAE back pain [1]: 2.9%
- Grade 3 or 4 TEAE cognitive disorder [1]: 2.9%
- Grade 3 or 4 TEAE decreased performance status [1]: 2.9%
- Grade 3 or 4 TEAE decreased platelet count [1]: 2.9%
- Grade 3 or 4 TEAE dyspnea [1]: 2.9%
- Grade 3 or 4 TEAE fatigue [1]: 2.9%
- Grade 3 or 4 TEAE hyperglycemia [1]: 5.8%
- Grade 3 or 4 TEAE hypokalemia [1]: 2.9%
- Grade 3 or 4 TEAE hyponatremia [1]: 2.9%
- Grade 3 or 4 TEAE increased ALT [1]: 4.3%
- Grade 3 or 4 TEAE thrombocytopenia [1]: 13.0%
- TEAE abdominal pain [1]: 14.5%
- TEAE anemia [1]: 15.9%
- TEAE asthenia [1]: 39.1%
- TEAE constipation [1]: 13.0%
- TEAE decreased appetite [1]: 24.6%
- TEAE dermatitis acneiform [1]: 13.0%
- TEAE diarrhea [1]: 42.0%
